Test results published in patent US6060608A, “Analogs of CC-1065 and the duocarmycins” (The Scripps Research Institute, priority 1999, dated 2000).

What was measured:
w794 duplex DNA = experiment: DNA alkylation selectivity and efficiency within w794 DNA, thermally-induced strand cleavage and PAGE; format: biochemical, SV40
How it was run: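 5′-32P end-labeled w794 duplex DNA in TE buffer (pH 7.2–7.5) incubated with agent in DMSO across concentrations, 4–37 °C for 24–76 h depending on agent. Unbound agent removed by EtOH precipitation; thermolysis 100 °C, 30 min cleaves alkylation sites, mapped by denaturing 8% PAGE beside Sanger standards and autoradiography.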

[1] = Solvolysis in THF-CH3OH with CF3SO3H; format: physicochemical; conditions: 20 equiv CH3OH, 0.1 equiv CF3SO3H
Description: Solvolysis of N-BOC-CCBI in THF-CH3 OH. The solvolysis of N-BOC-CCBI (25) was carried out in THF with 20-500 equiv of CH3 OH in the presence of 0.1-0.25 equiv of CF3 SO3 H. The following is the procedure for the solvolysis of 25 in THF with 20 equiv of CH3 OH in the presence of CF3 SO3 H (0.1 equiv). A stock solution was prepared by addition of CF3 SO3 H (5.6 μL) and anhydrous CH3 OH (502 μL) to anhydrous THF (99.49 mL). A sample of 25 (100 μg) in a UV cell was dissolved in THF (1950 μL) and the THF stock solution (50 μL) which contained CF3 SO3 H (0.1 equiv) and CH3 OH (20 equiv) was added. The solvolysis solution was sealed and UV spectrum was measured with an automated cycle program at regular intervals (10 min/cycle). The decrease in the long wavelength absorption at 313 nm was monitored and the solvolysis was complete after 80 h.

[2] = natural enantiomers, 37° C., 72 h

For `CC(C)(C)OC(=O)N1CC2CC23C1=CC(=O)c1ccc(C#N)cc13` (centres unmarked) [compound 25, N-(tert-Butyloxycarbonyl)-7-cyano-1,2,9,9a-tetrahydrocyclopropa[c]benz[e]indol-4-one], the “DNA alkylation sequence selectivity” value (w794 duplex DNA) was 5'-AA>5'-TA, the “concentration providing detectable DNA alkylation” value (w794 duplex DNA; both enantiomers, 37° C., 24-72 h) was 10^-2 to 10^-3 M and the “concentration at which DNA alkylation is detectable” value (w794 duplex DNA; [2]) was 10^-3 M. The “concentration at which DNA alkylation is prominent” value (w794 duplex DNA; [2]) was 10^-2 M, the “DNA alkylation less efficient than 34-39” value (w794 duplex DNA; two enantiomers of 25) was 10^4 × and the “solvolysis half-life t1/2” value [1] was 9.2 h. For the same compound, the solvolysis rate k [1] was 2e-05 s⁻¹ and the “time to complete solvolysis” value [1] was 80 h.
